Columns and labels:
Type in all cases: in vivo, rabbit
Conditions in all cases: Con A DED rabbits, 6 days, eye drops 3×/day; PS nanoparticles, cyclosporine 0.05%, lifitegrast 5%; mean ± SEM
[1] = tested on: concanavalin A-induced dry eye in rabbits; assay: Concanavalin A (Con A)-induced dry eye disease (DED) model in rabbits: TBUT, Schirmer test, tear osmolarity, tear lactoferrin
Method: To assess the efficacy of PS on DED an improved concanavalin A model was used. In the concanavalin A model, dry eye is induced by injecting the lacrimal glands of a mammal with concanavalin A, a selective T cell mitogen that induces a lymphocytic infiltrate in these glands. The concanavalin A model is generally described in (Barabino S. Animal models of dry eye. Arch Soc Esp Oftalmol. 2005; 80(12):693-4). Concanavalin A was injected to the lacrimal glands under ultrasound guidance, thus eliminating injections to the vicinity of the gland (as opposed to the gland itself). The head and the tail of the major lacrimal gland of the rabbit were injected separately. The dose of concanavalin A was optimized for DED signs.
In the testing described below, four markers of DED are monitored: the tear break up time (TBUT), the Schirmer test, tear osmolarity, and tear lactoferrin levels. All assays were performed at the same clock time (±1 hr) to avoid assay variability on account of circadian variations.
In an efficacy experiment using the concanavalin A model, one group of rabbits was treated with compound 5, also known as phosphosulindac and abbreviated as PS, 1.5% eye drops and one group with vehicle. […] It is thus clear that PS applied topically suppresses DED.
Con A was injected under ultrasound guidance into all the lacrimal glands and the success of the injection was verified by a post-injection ultrasound image (see FIG. 1 and FIG. 2). […] This variation explains why the blind injections recommended in the original method are often unsuccessful. This was confirmed by mixing the Con A solution with methylene blue and tracking its course after injection. In about ⅓ of the cases, Con A ended up outside the gland.
Four parameters of efficacy were evaluated instead of the usual one or two. They include (a) the tear break up time (TBUT), determined using 0.2% fluorescein over the eye and recording the time taken to develop black dots, lines or obvious disruption of the fluorescein film; (b) tear osmolarity, measured using TearLab Osmolarity Test and following the manufacturer's instructions (TearLab Corp., San Diego, Calif.); (3) Schirmer tear test (STT), determined using Schirmer strips (EagleVision, Denville, N.J.) inserted between the cornea and the palpebral conjunctiva at the mid-point of the lower lid and measuring the length of moistened strip at 5 min; and (4) tear lactoferrin levels measured by ELISA kit (MyBiosource, San Diego, Calif.) following the instructions of the manufacturer. All four have been used in clinical practice and correlate with the clinical activity of the disease. The STT is the least reliable and, as result, it is clinically used less than half as frequently as TBUT.
The injections of Con A to the lacrimal glands were repeated weekly as needed. When longer than a 1-week periods of study are needed, repeat injections prolong dry eye for at least 3 weeks, making the originally acute model chronic.
PS Suppresses Con A—Induced Dry Eye in Rabbits. The effect of PS on dry eye was determined in New Zealand White (NZW) rabbits, 2-3 kg (Charles River Labs, Waltham, Mass.). These rabbits were housed singly in rooms with strict temperature (70±5° F.) and humidity (45±5%) control and acclimated for at least 2 weeks prior to induction of dry eye by injection of Con A as above. NZW rabbits with Con A-induced dry eye (three sets of injections) were treated with PS formulated as nanoparticles and administered topically as eye drops 3×/day for 21 days, starting on the day of Con A injection. […] Similar results were obtained on days 5 and 14 (data not shown).
Using this model, we compared the effect of PS to that of cyclosporine and lifitegrast. Rabbits were treated for 6 days with PS as above or cyclosporine 0.05% or lifitegrast 5% eye drops 3×/day. In addition to determining TUBT, osmolarity and STT, we measured the levels of IL-8 and IL-1β in the ILGs of the rabbits harvested at euthanasia. […]

[2] = tested on: IL-8; assay: IL-8 levels in the ILG of rabbits with DED (ELISA)
Method: (§1) Using this model, we compared the effect of PS to that of cyclosporine and lifitegrast. Rabbits were treated for 6 days with PS as above or cyclosporine 0.05% or lifitegrast 5% eye drops 3×/day. In addition to determining TUBT, osmolarity and STT, we measured the levels of IL-8 and IL-1β in the ILGs of the rabbits harvested at euthanasia. Both of these cytokines are significant mediators of inflammation in DED. As shown in the table below, PS had statistically significant effects on TBUT, tear osmolarity, IL-8 and IL-1β levels. […] Of note, lifitegrast suppressed STT below the levels of the vehicle group and this suppression was statistically significant, but in the opposite direction for a useful therapeutic effect.
(§2) Moreover, for all three cytokines PS suppressed their unstimulated levels as well (62%, 84% and 4.7% reduction, respectively). In addition, PS suppressed the levels of IL-8 by 64% and IL-1β (not expressed by the cultured cells) by 61% in the ILG of rabbits treated with PS for 1 week compared to controls treated with vehicle (FIG. 8B). TGF-β was not detectable by the method in ILG homogenates. All these changes were statistically significant (p<0.001-0.04, except for the unstimulated TGF-β).

[3] = tested on: IL-1β; assay: IL-1β levels in the ILG of rabbits with DED (ELISA)
Method: as §1, §2

Q: What does the source list for CS(=O)(=O)c1cccc(C[C@H](NC(=O)c2c(Cl)cc3c(c2Cl)CCN(C(=O)c2ccc4ccoc4c2)C3)C(=O)O)c1 [Lifitegrast, lifitegrast, reference compound]?
A: Osmolarity [1]: 290 ± 4.2 mOsm/L; STT [1]: 6.9 ± 0.7 mm; TBUT [1]: 9.1 ± 3.0 s; IL-8 in the ILG [2]: 9.0 ± 2.4 pg/mg protein; IL-1β in the ILG [3]: 11.5 ± 1.9 pg/mg protein
